Experimental data taken from the NIST ThermoML archive (doi:10.1021/je400109a).
± gives the expanded uncertainty stated by the source.

Assay: an = ratio of the nth substance listed
Settings: 101 kPa, Liquid, Vibrating tube method

Work on `Cn1cc[n+](C)c1.[Cl-]` [1,3-dimethylimidazolium chloride] + O yielded a mass density (313.15 K, a1 = 0.75) of 1096.1 ± 0.3 kg/m3.
`Cn1cc[n+](C)c1.F[B-](F)(F)F` [1,3-dimethyl-1H-imidazolium tetrafluoroborate] + O showed a mass density (313.15 K, a1 = 0.75) of 1098.4 ± 0.3 kg/m3.
Work on `COP(=O)([O-])OC.Cn1cc[n+](C)c1` [1,3-dimethylimidazolium dimethylphosphate] + O yielded a mass density (293.15 K, a1 = 0.5) of 1086.4 ± 0.2 kg/m3, a mass density (293.15 K, a1 = 0.75) of 1112.3 ± 0.3 kg/m3 and a mass density (313.15 K, a1 = 0.5) of 1076.8 ± 0.2 kg/m3. The mass density (313.15 K, a1 = 0.75) was 1104.1 ± 0.2 kg/m3, the mass density (333.15 K, a1 = 0.5) was 1076.6 ± 0.2 kg/m3 and the mass density (333.15 K, a1 = 0.75) was 1103.3 ± 0.2 kg/m3.
